Laboratory results taken from the NIST ThermoML archive (doi:10.1016/j.fluid.2010.10.003).
Numbers after ± are expanded uncertainties.

Tests used:
[1] = refractive index (Na D-line) (dimensionless); details: 298.15 K; 101.33 kPa; Liquid; Standard Abbe refractometry
[2] = 298.15 K, 101.33 kPa, Liquid; for viscosity: Capillary tube (Ostwald / Ubbelohde) method; for mass density: Vibrating tube method
[3] = refractive index (Na D-line) (dimensionless); xn = mol fraction of the nth substance listed; details: 298.15 K, 101 kPa, Liquid, Standard Abbe refractometry
[4] = xn = mol fraction of the nth substance listed; details: 298.15 K, 101 kPa, Liquid; for viscosity: Capillary tube (Ostwald / Ubbelohde) method; for mass density: Vibrating tube method

CC(C)O [propan-2-ol]
Details	mass density [kg/m3]	refractive index	viscosity [mPa·s]
[1]	–	1.37502 ± 0.00033	–
[2]	780.88 ± 0.15	–	2.073 ± 0.024

CCCC[n+]1ccn(C)c1.O=S(=O)([N-]S(=O)(=O)C(F)(F)F)C(F)(F)F
Details	mass density [kg/m3]	refractive index	viscosity [mPa·s]
[1]	–	1.42692 ± 0.001	–
[2]	1436.58 ± 0.62	–	50.68 ± 1.4

CC(=O)OC(C)C [1-methylethyl ethanoate]
Details	mass density [kg/m3]	refractive index	viscosity [mPa·s]
[1]	–	1.3748 ± 0.00032	–
[2]	866.21 ± 0.12	–	0.481 ± 0.006

CCCC[n+]1ccn(C)c1.O=S(=O)([N-]S(=O)(=O)C(F)(F)F)C(F)(F)F + CC(C)O
Details	mass density, [4] [kg/m3]	refractive index, [3]	viscosity, [4] [mPa·s]
x2 = 0.0515	1427.23 ± 0.58	1.42621 ± 0.00037	45.44 ± 0.56
x2 = 0.0962	1418.52 ± 0.56	1.42549 ± 0.00036	41.2 ± 0.51
x2 = 0.1921	1397.79 ± 0.51	1.42385 ± 0.00036	33.45 ± 0.4
x2 = 0.3213	1363.98 ± 0.45	1.42124 ± 0.00035	24.5 ± 0.29
x2 = 0.3896	1342.5 ± 0.42	1.41962 ± 0.00035	20.46 ± 0.24
x2 = 0.4869	1306.05 ± 0.4	1.41685 ± 0.00035	15.84 ± 0.19
x2 = 0.5173	1292.91 ± 0.41	1.41578 ± 0.00034	14.67 ± 0.17
x2 = 0.6074	1247.91 ± 0.36	1.4124 ± 0.00034	11.22 ± 0.13
x2 = 0.6943	1192.86 ± 0.33	1.40818 ± 0.00034	8.545 ± 0.099
x2 = 0.7996	1102.82 ± 0.27	1.40129 ± 0.00033	5.859 ± 0.068
x2 = 0.8995	978.52 ± 0.17	1.39152 ± 0.00033	3.898 ± 0.045

CC(=O)OC(C)C [1-methylethyl ethanoate] + CCCC[n+]1ccn(C)c1.O=S(=O)([N-]S(=O)(=O)C(F)(F)F)C(F)(F)F
Details	mass density, [4] [kg/m3]	refractive index, [3]	viscosity, [4] [mPa·s]
x1 = 0.0514	1425.08 ± 0.58	1.42609 ± 0.00037	44.31 ± 0.55
x1 = 0.1096	1411.17 ± 0.54	1.42501 ± 0.00036	38.56 ± 0.47
x1 = 0.1554	1399.42 ± 0.51	1.42412 ± 0.00036	33.87 ± 0.41
x1 = 0.1972	1388.1 ± 0.49	1.42326 ± 0.00036	30.34 ± 0.36
x1 = 0.2961	1358.2 ± 0.43	1.42092 ± 0.00035	22.58 ± 0.27
x1 = 0.4241	1312.34 ± 0.38	1.41733 ± 0.00034	14.46 ± 0.17
x1 = 0.5168	1272.49 ± 0.37	1.4142 ± 0.00034	10.07 ± 0.12
x1 = 0.5998	1230.54 ± 0.34	1.4107 ± 0.00034	6.918 ± 0.081
x1 = 0.7017	1168.62 ± 0.28	1.40538 ± 0.00033	4.356 ± 0.051
x1 = 0.7981	1095.44 ± 0.23	1.39882 ± 0.00033	2.363 ± 0.028
x1 = 0.8918	1005.35 ± 0.15	1.39016 ± 0.00032	1.41 ± 0.016
